The results in this text go back to BindingDB's records for doi:10.1016/j.ejmech.2021.113481 (Harvard Medical School, 2021).

Cyclin-H/Cyclin-dependent kinase 7, sequence (P51946 whole entry): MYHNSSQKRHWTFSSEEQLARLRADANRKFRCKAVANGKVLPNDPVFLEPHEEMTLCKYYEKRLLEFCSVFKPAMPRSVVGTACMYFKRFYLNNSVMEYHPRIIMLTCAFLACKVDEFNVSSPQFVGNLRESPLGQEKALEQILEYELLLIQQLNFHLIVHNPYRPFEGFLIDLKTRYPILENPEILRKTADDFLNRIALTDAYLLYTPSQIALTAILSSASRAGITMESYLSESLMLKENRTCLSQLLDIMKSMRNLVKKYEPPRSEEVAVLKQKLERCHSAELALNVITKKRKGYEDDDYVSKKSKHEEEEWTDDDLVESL
Cyclin-H/Cyclin-dependent kinase 7, sequence (P50613 whole entry): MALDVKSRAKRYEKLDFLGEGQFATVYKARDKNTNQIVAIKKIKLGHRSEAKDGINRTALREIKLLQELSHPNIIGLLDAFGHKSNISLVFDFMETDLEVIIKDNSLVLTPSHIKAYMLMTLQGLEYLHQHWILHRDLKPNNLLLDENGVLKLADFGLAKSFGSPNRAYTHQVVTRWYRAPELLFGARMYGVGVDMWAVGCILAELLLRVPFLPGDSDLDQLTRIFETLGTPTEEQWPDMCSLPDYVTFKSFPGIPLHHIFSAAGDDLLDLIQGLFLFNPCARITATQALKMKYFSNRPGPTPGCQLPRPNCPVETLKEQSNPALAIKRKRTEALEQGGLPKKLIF

The test addresses Cyclin-H/Cyclin-dependent kinase 7 (Homo sapiens, UniProt P51946+P50613). As to the kind of experiment: Inhibition of CDK7/Cyclin H (unknown origin).
`CN(C)C/C=C/C(=O)Nc1ccc(O[C@@H]2CCC[C@@H](Nc3ncc(Cl)c(-c4c[nH]c5ccccc45)n3)C2)c(F)c1`: half-maximal inhibition (IC50) required 269 nM.

For the molecule `CN(C)C/C=C/C(=O)Nc1ccc(N2CCC[C@@H](Nc3ncc(Cl)c(-c4c[nH]c5ccccc45)n3)C2)nc1`, inhibition was half-maximal at 74 nM (IC50). This IC50 lies about 3.6-fold lower than the previous one.

On to `CN(C)C/C=C/C(=O)Nc1ccc(C(=O)N2CCC[C@@H](Nc3ncc(Cl)c(-c4c[nH]c5ccccc45)n3)C2)nc1`, for which inhibition was half-maximal at 402 nM (IC50).

`C=CC(=O)Nc1ccc(C(=O)N2CCC[C@@H](Nc3ncc(Cl)c(-c4c[nH]c5ccccc45)n3)C2)nc1`: the IC50 – broadly, the point on the concentration scale where inhibition reaches its midpoint – was found to be 919 nM.
